According to patent US6638947B2, “Carbocyclic and heterocyclic substituted semicarbazones and thiosemicarbazones and the use thereof” (Euro-Celtique S.A., priority 1997, dated 2003):

Assays:
[1] = system: voltage-sensitive Na^+ channels; assay: Electrophysiological assay: patch-clamp recordings of voltage-sensitive Na^+ currents in acutely dissociated hippocampal neurons; assay type: cell-based, rat
Protocol: Electrophysiological Assay:
Cell preparation: Acute cultures of rat hippocampal neurons were prepared daily using a modification of procedures described previously (Kuo and Bean, Mol. Pharm. 46:716-725 (1994)). Briefly, hippocampi were isolated from 3-11 day old rat pup brains (Sprague-Dawley; Charles River) and were sectioned, by hand, into 0.5-1 mm thick transverse slices (Whittemore and Koerner, Eur. J. Pharm. 192:435-438 (1991)). Slices were incubated for at least 30 min at room temperature (20-24° C.) in an oxygenated medium (124 mM NaCl, 3.3 mM KCl, 2.4 mM MgSO4, 2.5 mM CaCl2, 1.2 mM KH2PO4, 26 mM NaHCO3, pH =7.4) continuously bubbled with 5% CO2/95% O2. […]
Patch-clamp recordings of voltage-sensitive Na^+ currents: Whole-cell voltage-clamp recordings were made using conventional patch-clamp technique (Hamill et al., Pfluegers Arch. 391:85-100 (1981)) with an Axopatch 200A amplifier (Axon Instruments, Foster City, Calif.). […] Currents were recorded at room temperature (22-25° C.), filtered at 5 kHz with 4-pole Bessel filter, digitized at 20-50-μs intervals, and stored using Digidata 1200 analog/digital interface with Pclamp6/Clampex software (Axon Instruments). […] The inhibitory potency of drugs was assessed by measuring reductions in the peak amplitude of Na^+ currents induced by increasing concentrations of compounds tested. […]

[2] = system: site 2 of the Na^+ channel; assay type: binding, rat
[3] = molecular target: T1, human skeletal muscle Na^+ channel subunit (Homo sapiens, UniProt P35499); assay: Na^+ current recordings in HEK-293 cells stably expressing human skeletal muscle Na^+ channel subunit; assay type: cell-based
T1 construct: expressed in transfected cells
Protocol: The relative in vitro potency of these compounds were determined by their ability to inhibit human skeletal muscle Na^+ channel subunit stable expressed in HEK-293 cells. The techniques employed for Na^+ current recordings and analysis with the use of this cell line were similar to that described in example 36. These studies employ depolarizing prepulses of varying duration to allow drugs to bind, a brief (5 ms) repolarizing step to reprime unbound channels, followed by the test pulse (5 ms) to measure what proportion of channels are inhibited. The reduction in peak currents is then plotted as a function of prepulse duration and the time constant (τ) measured by monoexponential fit. A plot of 1/τ as a function of antagonist concentration then allows the macroscopic binding rates of the antagonists to be calculated. The anticonvulsant activities of additional compounds of the present invention were determined as described in example 38.

T1 sequence (P35499 whole entry): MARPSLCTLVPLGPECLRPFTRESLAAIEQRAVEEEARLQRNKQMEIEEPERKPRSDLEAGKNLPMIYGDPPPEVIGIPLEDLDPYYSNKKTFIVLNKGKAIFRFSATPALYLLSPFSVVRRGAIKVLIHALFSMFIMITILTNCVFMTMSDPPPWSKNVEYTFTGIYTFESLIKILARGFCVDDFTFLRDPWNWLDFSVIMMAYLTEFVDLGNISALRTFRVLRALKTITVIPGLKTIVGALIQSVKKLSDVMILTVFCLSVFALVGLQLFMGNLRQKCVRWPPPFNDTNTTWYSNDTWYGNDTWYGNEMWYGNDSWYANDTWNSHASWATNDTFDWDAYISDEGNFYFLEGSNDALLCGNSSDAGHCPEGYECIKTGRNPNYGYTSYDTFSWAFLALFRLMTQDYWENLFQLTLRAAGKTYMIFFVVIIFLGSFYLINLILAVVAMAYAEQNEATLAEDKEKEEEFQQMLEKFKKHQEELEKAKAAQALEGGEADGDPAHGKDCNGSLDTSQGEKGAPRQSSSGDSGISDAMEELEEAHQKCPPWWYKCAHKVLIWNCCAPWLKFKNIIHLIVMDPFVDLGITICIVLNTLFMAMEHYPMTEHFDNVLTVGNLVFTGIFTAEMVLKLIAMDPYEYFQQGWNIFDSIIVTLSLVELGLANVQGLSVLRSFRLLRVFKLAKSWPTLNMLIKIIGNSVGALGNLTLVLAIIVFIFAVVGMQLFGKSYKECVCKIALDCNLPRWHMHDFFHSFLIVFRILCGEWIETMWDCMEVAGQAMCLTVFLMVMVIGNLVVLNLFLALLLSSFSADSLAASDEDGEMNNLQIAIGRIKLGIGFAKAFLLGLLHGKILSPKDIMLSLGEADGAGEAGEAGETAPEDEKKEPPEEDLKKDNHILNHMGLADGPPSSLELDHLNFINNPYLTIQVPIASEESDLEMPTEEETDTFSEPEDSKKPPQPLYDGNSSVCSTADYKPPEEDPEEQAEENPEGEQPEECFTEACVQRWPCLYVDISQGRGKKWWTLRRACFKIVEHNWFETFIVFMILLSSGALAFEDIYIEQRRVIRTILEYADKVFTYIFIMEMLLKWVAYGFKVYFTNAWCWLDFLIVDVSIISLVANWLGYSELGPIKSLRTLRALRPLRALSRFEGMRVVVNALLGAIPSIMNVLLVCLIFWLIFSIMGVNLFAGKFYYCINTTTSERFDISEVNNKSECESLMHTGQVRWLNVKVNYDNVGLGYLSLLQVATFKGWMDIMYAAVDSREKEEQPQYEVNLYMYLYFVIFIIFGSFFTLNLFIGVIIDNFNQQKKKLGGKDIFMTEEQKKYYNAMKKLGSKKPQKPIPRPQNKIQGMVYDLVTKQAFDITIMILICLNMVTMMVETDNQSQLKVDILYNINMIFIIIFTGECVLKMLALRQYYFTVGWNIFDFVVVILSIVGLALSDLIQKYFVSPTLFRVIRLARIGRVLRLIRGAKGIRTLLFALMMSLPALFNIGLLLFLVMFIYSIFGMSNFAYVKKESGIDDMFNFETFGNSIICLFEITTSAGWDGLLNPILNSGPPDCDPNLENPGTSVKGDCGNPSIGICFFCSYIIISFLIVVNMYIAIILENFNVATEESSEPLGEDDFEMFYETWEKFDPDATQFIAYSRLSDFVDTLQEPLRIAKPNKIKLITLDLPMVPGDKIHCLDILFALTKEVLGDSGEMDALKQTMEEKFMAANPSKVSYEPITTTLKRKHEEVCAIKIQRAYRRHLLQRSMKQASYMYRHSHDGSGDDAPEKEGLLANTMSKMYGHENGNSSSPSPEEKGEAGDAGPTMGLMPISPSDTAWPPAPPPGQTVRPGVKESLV

| SMILES | melting point | further results |
| --- | --- | --- |
| NC(=O)NN=Cc1ccc(Oc2ccc([N+](=O)[O-])cc2)cc1 [Example 15, 4-(4-Nitrophenoxy)benzaldehyde semicarbazone] | 221 to 222 °C |  |
| CN(N=Cc1ccc(Oc2ccc(F)cc2)c(F)c1)C(N)=O [4-(4-Fluorophenoxy)-3-fluorobenzaldehyde 2′-methylsemicarbazone] | 169 to 172 °C |  |
| NC(=O)NN=Cc1ccc(Cc2ccccc2)cc1 [Example 33b, 4-Benzylbenzaldehyde semicarbazone] | 118 to 120 °C |  |
| NC(=O)NN=Cc1ccc(Oc2ccc(F)cc2)cc1 [4-(4-Fluorophenoxy) benzaldehyde semicarbazone] |  | effect on the overall shape of the Na^+ channel current-voltage relationship ([1]; measured at peak current): little effect |
| NC(=O)NN=Cc1ccc(Oc2ccc(F)cc2)cc1 [4-(4-fluorophenoxy)benzaldehyde semicarbazone] |  | inhibition of voltage-gated Na^+ currents ([1]; acutely dissociated rat hippocampal neurons): dose-dependent inhibition |
| NC(=O)NN=Cc1ccc(Oc2ccc(C(F)(F)F)cc2)cc1 [Example 34c, 4-(4-Trifluoromethylphenoxy)benzaldehyde semicarbazone] | 119 to 122 °C |  |
| CCCCCC(CC)Oc1ccc(C=NNC(N)=O)cc1 (stereo not shown) [Example 32b, 4-(3-Octoxy)benzaldehyde semicarbazone] | 45 °C |  |
| NC1=N[C@H](O)[C@H]2[C@H]3O[C@]4(O)O[C@@H]([C@@H](O)[C@@]2(N1)[C@@H]4O)[C@]3(O)CO [Tetrodotoxin] |  | IC50 [2]: > 100 µM |
| NC(=O)NN=Cc1ccc(Oc2ccc3c(c2)CCC3)cc1 [4-(5-indanoxy)benzaldehyde semicarbazone, 4-(5-Indanoxy)benzaldehyde semicarbazone] |  | HsmNa^+ Ki [3]: 0.04 µM |
| NC(=O)NN=Cc1ccc(OCC2CCCCC2)cc1 [Example 10, 4-(Cyclohexylmethoxy)benzaldehyde semicarbazone] | 218 to 219 °C |  |
| NC(=O)NN=Cc1ccc(Oc2ccc(Cl)cc2F)cc1 [4-(2-Fluoro-4-chlorophenoxy)benzaldehyde semicarbazone] | 218 to 220 °C | HsmNa^+ Ki [3]: 0.06 µM |
| NC(=O)NN=Cc1ccc(OC2CCOCC2)cc1 [Example 12, 4-(4-Tetrahydropyranoxy)benzaldehyde semicarbazone] | 208 to 209 °C |  |
